One test deals with KRas G12D mutant (Homo sapiens (Human), UniProt P01116, G12D). Kind of test: Ras GTP Binding Domain Inhibition Assay, KRas G12D mutant. The conditions noted are these: for inhibition at 20 µM: Table 7; for KRas G12D mutant + SOS: % inh. / KRas G12D mutant: % inh.: 20 uM, Table 8. In short, it runs like this:
(§1)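 Steps: coat His-tagged protein (10-30 μg/mL) on nickel wells overnight at 4° C; add test compound, 20 μM final or serial dilution, 1% DMSO, 3 h RT; optional Sos final hour; add 100 nM Cy3-GTP or Cy5-GTP, 45 min; wash and read fluorescence.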

The subject of another test is Smad2/3 phosphorylation. Kind of test: Phospho-Smad2/3 Inhibition Assay in Panc-1 (western blot). The conditions noted are these: Homo sapiens; 10 μM, 3 hours; PANC-1 stimulated with 10 ng/ml TGF-b1 for 1 hour; read-out: % inh of Smad2/3 phosphorylation in PANC-1. It is filed as cell-based. In short, it runs like this:
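Serum-starved cells (0.5% FBS overnight) pretreated 3 h at 37 °C with compound at 10 μM or serial dilutions for IC50, in 0.3% DMSO. TGF-b1 10 ng/ml stimulation: 1 h for Panc-1 (human), 20 min for C2C12 (mouse). Phospho-Smad2 (Ser465/467) and phospho-Smad3 (Ser423/425) measured by western blot of lysates.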

The target of the next test is Rho-A (Homo sapiens (Human), UniProt P61586). Kind of test: Ras GTP Binding Domain Inhibition Assay, Rho-A. To be noted: without SOS, read-out: Rho-A: % inh. In short, it runs like this: as §1
The target in another test is KRas Q61H mutant (Homo sapiens (Human), UniProt P01116, Q61H). Kind of test: Ras GTP Binding Domain Inhibition Assay, KRas Q61H mutant. To be noted: 20 μM. In short, it runs like this:
as §1

Another test deals with MiaPaca2. Kind of test: MiaPaca2 proliferation. It is filed as cell-based. To be noted: Homo sapiens, MIA PaCa-2; for inhibition at 10 µM: read-out: % inh of proliferation in MiaPaca2.
Where [1] appears, read: + SOS, read-out: KRas G12D mutant + SOS: % inh.
Where [2] appears, read: without SOS, read-out: KRas G12D mutant: % inh.
[3] abbreviates: + SOS, read-out: KRas Q61H mutant + SOS: % inh.
The mark [4] stands for this setting: without SOS, read-out: KRas Q61H mutant: % inh.

Read-outs that look alike come from different tables or passages of the source.

Chain of Rho-A (P61586 whole entry, species assumed, the tested form may be a part): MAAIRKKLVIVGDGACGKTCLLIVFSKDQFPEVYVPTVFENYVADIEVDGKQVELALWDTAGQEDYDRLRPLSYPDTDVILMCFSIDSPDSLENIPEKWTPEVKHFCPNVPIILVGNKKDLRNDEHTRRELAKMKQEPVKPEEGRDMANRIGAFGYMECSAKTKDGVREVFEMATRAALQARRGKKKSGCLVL
Chain of KRas G12D mutant (P01116 other isoform, or with tags, fused parts or gaps G12D): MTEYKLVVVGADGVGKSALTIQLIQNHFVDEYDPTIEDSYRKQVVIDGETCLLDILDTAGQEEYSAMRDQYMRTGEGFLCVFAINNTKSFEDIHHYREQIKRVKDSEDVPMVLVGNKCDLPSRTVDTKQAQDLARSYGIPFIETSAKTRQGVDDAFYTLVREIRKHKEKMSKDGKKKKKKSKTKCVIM
Chain of KRas Q61H mutant (P01116 other isoform, or with tags, fused parts or gaps Q61H): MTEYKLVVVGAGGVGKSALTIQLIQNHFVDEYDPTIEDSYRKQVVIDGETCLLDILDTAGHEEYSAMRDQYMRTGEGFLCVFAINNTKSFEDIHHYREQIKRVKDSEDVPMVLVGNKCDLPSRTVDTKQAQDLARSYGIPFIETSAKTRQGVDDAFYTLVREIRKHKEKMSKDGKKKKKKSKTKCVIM

Take `COCC1CN(c2nc(-c3nccn3C)nc3sc(-c4ccn(C(C)C)n4)c(C)c23)CCO1` (racemic) [Compound 15, 4-(6-(1-Isopropyl-1H-pyrazol-3-yl)-5-methyl-2-(1-methyl-1H-imidazol-2-yl)thieno[2,3-d]pyrimidin-4-yl)-2-(methoxymethyl)morpholine]: the inhibition at 20 µM on KRas G12D mutant (setting [1]), on KRas G12D mutant (setting [2]), on Rho-A, at KRas Q61H mutant (setting [3]) and on KRas Q61H mutant (setting [4]) was 76 to 100% each time. Further, the “KRas G12D mutant + SOS: % inh.” value at KRas G12D mutant (+ SOS) is given as “D (D = 76-100% inhibition)”. Also, on KRas G12D mutant (without SOS), the “KRas G12D mutant: % inh.” value was “D (D = 76-100% inhibition)”. The inhibition at 10 µM in the test on Smad2/3 phosphorylation lay in the range of 26 to 45%; in the test on MiaPaca2, 46 to 75%. Further, the half-inhibitory concentration (IC50) in the test on MiaPaca2 is 5 to 10 µM.
Consider `Cc1c(-c2ccn(C(C)C)n2)sc2nc(-c3nccn3C)nc(NCCN3CCS(=O)(=O)CC3)c12` [Compound 23, 4-(2-((6-(1-Isopropyl-1H-pyrazol-3-yl)-5-methyl-2-(1-methyl-1H-imidazol-2-yl)thieno[2,3-d]pyrimidin-4-yl)amino)ethyl)thiomorpholine 1,1-dioxide], for which the inhibition at 20 µM at KRas G12D mutant (setting [1]) is 76 to 100%; on KRas G12D mutant (setting [2]) it was 76 to 100%; on Rho-A it was 46 to 75%; at KRas Q61H mutant (setting [3]) it was 76 to 100%; on KRas Q61H mutant (setting [4]), 76 to 100%. On KRas G12D mutant (+ SOS), the “KRas G12D mutant + SOS: % inh.” value is recorded as “D (D = 76-100% inhibition)”. Besides, the “KRas G12D mutant: % inh.” value at KRas G12D mutant (without SOS) is “D (D = 76-100% inhibition)”. In addition, the inhibition at 10 µM with Smad2/3 phosphorylation and in the test with MiaPaca2 was 0% throughout. The IC50 in the test with MiaPaca2 was over 10 µM.
Turning to `COc1cccc(Nc2nc(-c3nccn3C)nc3sc(-c4ccn(C(C)C)n4)c(C)c23)n1` [Compound 18, 6-(1-Isopropyl-1H-pyrazol-3-yl)-N-(6-methoxypyridin-2-yl)-5-methyl-2-(1-methyl-1H-imidazol-2-yl)thieno[2,3-d]pyrimidin-4-amine], the inhibition at 20 µM at KRas G12D mutant (setting [1]) was 46 to 75%; on KRas G12D mutant (setting [2]), 76 to 100%; at Rho-A it was 76 to 100%; at KRas Q61H mutant (setting [3]), 46 to 75%; at KRas Q61H mutant (setting [4]), 46 to 75%. For the same molecule, the “KRas G12D mutant + SOS: % inh.” value at KRas G12D mutant (+ SOS) is listed as “C (C = 46-75% inhibition)”. Further, on KRas G12D mutant (without SOS), the “KRas G12D mutant: % inh.” value is listed as “D (D = 76-100% inhibition)”. Also, the results for the inhibition at 10 µM in the test with Smad2/3 phosphorylation and in the test on MiaPaca2 were 46 to 75% and 76 to 100%, respectively. The molecule also had a concentration for half-maximal inhibition (IC50) with MiaPaca2 of under 1 µM.
With `COCCO[C@H]1CC[C@@H](Nc2nc(-c3nccn3C)nc3sc(-c4ccn(C(C)C)n4)c(C)c23)C1` (racemic) [Compound 20, rac-6-(1-Isopropyl-1H-pyrazol-3-yl)-N-((1R,3S)-3-(2-methoxyethoxy)cyclopentyl)-5-methyl-2-(1-methyl-1H-imidazol-2-yl)thieno[2,3-d]pyrimidin-4-amine], the inhibition at 20 µM was in the range of 76 to 100% at KRas G12D mutant (setting [1]); 76 to 100% on KRas G12D mutant (setting [2]); 46 to 75% at Rho-A; 76 to 100% at KRas Q61H mutant (setting [3]); 46 to 75% at KRas Q61H mutant (setting [4]). Moreover, at KRas G12D mutant (+ SOS), the “KRas G12D mutant + SOS: % inh.” value was “D (D = 76-100% inhibition)”. Also, on KRas G12D mutant (without SOS), the “KRas G12D mutant: % inh.” value is listed as “D (D = 76-100% inhibition)”. The inhibition at 10 µM with Smad2/3 phosphorylation lay in the range of 1 to 25%; in the test with MiaPaca2, 76 to 100%. Further, the IC50 with MiaPaca2 was in the range of 1 to 4.99 µM.
On to `COCCn1ccc(-c2sc3nc(-c4nccn4C)nc(NC[C@H]4CC[C@H]4COC)c3c2C)n1` (racemic) [Compound 38, rac-6-(1-(2-Methoxyethyl)-1H-pyrazol-3-yl)-N-(((1S,2R)-2-(methoxymethyl)cyclobutyl)methyl)-5-methyl-2-(1-methyl-1H-imidazol-2-yl)thieno[2,3-d]pyrimidin-4-amine], for which the inhibition at 20 µM on KRas G12D mutant (setting [1]) is 76 to 100%; at KRas G12D mutant (setting [2]), 26 to 45%; at Rho-A, 26 to 45%; at KRas Q61H mutant (setting [3]), 76 to 100%; on KRas Q61H mutant (setting [4]), 46 to 75%. Besides, the “KRas G12D mutant + SOS: % inh.” value at KRas G12D mutant (+ SOS) is reported as “D (D = 76-100% inhibition)”. The “KRas G12D mutant: % inh.” value at KRas G12D mutant (without SOS) is “B (B = 26-45% inhibition)”. In addition, the values for the inhibition at 10 µM with Smad2/3 phosphorylation and in the test with MiaPaca2 were 46 to 75% and 76 to 100%, respectively. In the test with MiaPaca2, this molecule came in with a 50% inhibitory concentration (IC50) of 5 to 10 µM.

These data come from patent publication US20240124483A1, “Methods for the Treatment of Fibrotic Disease” (SHY Therapeutics, LLC, priority 2021, published 2024).
